Drawing on patent US20090311217A1, “3-SUBSTITUTED-1H-INDOLE COMPOUNDS, THEIR USE AS MTOR KINASE AND PI3 KINASE INHIBITORS, AND THEIR SYNTHESES” (priority 2008, published 2009), this text covers IC50 for 24 compounds.

For assay [1], the target named is PI3K-alpha (Homo sapiens, UniProt P42336). Briefly: PI3K-alpha fluorescence polarization assay. It is filed as biochemical.
Assay [2] addresses T1, human TOR (Homo sapiens, UniProt P42345).
T1 construct: FLAG
Description: mTOR enzyme assay (DELFIA, His6-S6K substrate). Format: biochemical. The settings on record: read-out: mTOR Kinase Avg. IC50.

Like-named read-outs stand apart in the source and are kept apart here.

The term IC50 denotes the midpoint of a concentration-inhibition curve.

Sequence of PI3K-alpha (P42336 whole entry, species assumed): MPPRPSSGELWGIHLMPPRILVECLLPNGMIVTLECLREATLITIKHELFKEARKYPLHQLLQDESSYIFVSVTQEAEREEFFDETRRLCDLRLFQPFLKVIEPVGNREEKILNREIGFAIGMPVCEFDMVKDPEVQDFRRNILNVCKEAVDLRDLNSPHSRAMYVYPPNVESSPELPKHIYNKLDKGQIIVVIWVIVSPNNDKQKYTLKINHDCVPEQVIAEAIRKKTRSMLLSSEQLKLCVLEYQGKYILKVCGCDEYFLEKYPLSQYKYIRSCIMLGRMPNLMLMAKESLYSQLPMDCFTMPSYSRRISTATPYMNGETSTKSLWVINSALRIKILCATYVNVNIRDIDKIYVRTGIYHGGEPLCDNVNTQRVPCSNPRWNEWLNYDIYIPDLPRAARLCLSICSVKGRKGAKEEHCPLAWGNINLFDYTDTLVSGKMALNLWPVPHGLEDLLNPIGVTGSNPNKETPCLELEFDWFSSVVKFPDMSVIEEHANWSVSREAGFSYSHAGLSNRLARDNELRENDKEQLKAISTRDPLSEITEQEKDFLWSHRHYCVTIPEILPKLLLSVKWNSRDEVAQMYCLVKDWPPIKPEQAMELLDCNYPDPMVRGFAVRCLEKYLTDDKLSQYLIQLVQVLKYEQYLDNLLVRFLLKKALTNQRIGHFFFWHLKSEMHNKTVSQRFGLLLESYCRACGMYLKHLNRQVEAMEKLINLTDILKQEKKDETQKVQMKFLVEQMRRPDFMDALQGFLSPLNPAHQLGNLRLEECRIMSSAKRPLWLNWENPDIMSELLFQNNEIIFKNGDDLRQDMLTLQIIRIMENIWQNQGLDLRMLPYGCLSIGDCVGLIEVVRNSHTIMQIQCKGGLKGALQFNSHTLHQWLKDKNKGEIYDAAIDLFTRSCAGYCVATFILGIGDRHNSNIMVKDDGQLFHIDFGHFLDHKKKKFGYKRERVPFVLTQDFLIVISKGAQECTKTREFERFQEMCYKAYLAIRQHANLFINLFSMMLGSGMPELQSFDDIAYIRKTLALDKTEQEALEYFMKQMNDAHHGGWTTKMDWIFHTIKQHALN
Sequence of PI3K-alpha (P27986 whole entry partner, species assumed): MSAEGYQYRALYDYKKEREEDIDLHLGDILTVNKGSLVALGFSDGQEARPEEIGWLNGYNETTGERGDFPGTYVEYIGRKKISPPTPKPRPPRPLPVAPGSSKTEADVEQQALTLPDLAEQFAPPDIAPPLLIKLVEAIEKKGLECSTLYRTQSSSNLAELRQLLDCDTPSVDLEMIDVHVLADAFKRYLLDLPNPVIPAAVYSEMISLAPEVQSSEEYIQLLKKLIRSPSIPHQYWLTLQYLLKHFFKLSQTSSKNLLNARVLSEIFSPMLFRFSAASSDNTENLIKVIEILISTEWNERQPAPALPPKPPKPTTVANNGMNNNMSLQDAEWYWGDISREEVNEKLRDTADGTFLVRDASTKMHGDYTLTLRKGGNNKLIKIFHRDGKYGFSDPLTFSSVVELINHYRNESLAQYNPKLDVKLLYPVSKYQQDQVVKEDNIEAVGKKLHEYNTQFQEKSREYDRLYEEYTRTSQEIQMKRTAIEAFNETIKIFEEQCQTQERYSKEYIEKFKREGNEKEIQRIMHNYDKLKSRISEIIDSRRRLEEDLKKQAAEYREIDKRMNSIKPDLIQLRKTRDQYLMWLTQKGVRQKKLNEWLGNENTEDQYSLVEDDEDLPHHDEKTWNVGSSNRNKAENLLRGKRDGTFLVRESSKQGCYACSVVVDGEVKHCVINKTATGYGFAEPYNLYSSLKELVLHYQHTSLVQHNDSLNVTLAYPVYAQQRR

As for `O=C1C(=Cc2c[nH]c3c(Br)cccc23)Oc2cc(O)cc(O)c21` [Example 244, 2-[(7-bromo-1H-indol-3-yl)methylene]-4,6-dihydroxy-1-benzofuran-3(2H)-one], the figures for the half-inhibitory concentration (IC50) in assay [1] (read-out: PI3Kα Avg. IC50) and in assay [2] were 1.96 µM and 18 µM, respectively.
The like results for `N#CCCCn1cc(C=C2Oc3cc(O)cc(O)c3C2=O)c2c(C#N)cccc21` [Example 264, 1-(3-cyanopropyl)-3-[(4,6-dihydroxy-3-oxo-1-benzofuran-2(3H)-ylidene)methyl]-1H-indole-4-carbonitrile] were, in that order, 3.93 µM and 1.7 µM.
For `O=C1C(=Cc2c(-c3ccccc3)[nH]c3ccccc23)Oc2cc(O)ccc21` [Example 6, 6-hydroxy-2-[(2-phenyl-1H-indol-3-yl)methylene]-1-benzofuran-3(2H)-one], in that order: 2.4 µM and 2.85 µM.
`Cn1c(-c2ccc(F)c(Cl)c2)c(C=C2Oc3cc(O)cc(O)c3C2=O)c2ccccc21` [Example 199, 2-{[2-(3-chloro-4-fluorophenyl)-1-methyl-1H-indol-3-yl]methylene}-4,6-dihydroxy-1-benzofuran-3(2H)-one]: the values for the concentration for half-maximal inhibition (IC50) in assay [1] (read-out: PI3Kα Avg. IC50) and in assay [2] were 1.56 µM and 1.4 µM, respectively.
The like results for `COc1ccc2c(c(C=C3Oc4cc(O)cc(O)c4C3=O)cn2C)c1C` [Example 236, 4,6-dihydroxy-2-[(5-methoxy-1,4-dimethyl-1H-indol-3-yl)methylene]-1-benzofuran-3(2H)-one] were, in that order, 1.47 µM and 1.6 µM.
The like results for `N#Cc1ccc2c(C=C3Oc4cc(O)cc(O)c4C3=O)c[nH]c2c1` [Example 167, 3-[(4,6-dihydroxy-3-oxo-1-benzofuran-2(3H)-ylidene)methyl]-1H-indole-6-carbonitrile] were, in that order, 6.76 µM and 5.3 µM.
For `O=C1C(=Cc2c[nH]c3ccccc23)Oc2cc(O)ccc21` [Example 5, 6-hydroxy-2-(1H-indol-3-ylmethylene)-1-benzofuran-3(2H)-one], in that order: more than 10 µM and more than 20 µM.
Consider `COc1ccc2c(c1)c(/C=C1\Oc3c(ccc(O)c3C)C1=O)c(C)n2CCCN(C)C` [Example 450, (2Z)-2-({1-[3-(Dimethylamino)propyl]-5-methoxy-2-methyl-1H-indol-3-yl}methylene)-6-hydroxy-7-methyl-1-benzofuran-3(2H)-one], for which the IC50 in assay [1] (read-out: PI3Kα Avg. IC50) is 0.662 µM; in assay [2], more than 20 µM.
For `COC(=O)c1cccc2c(C=C3Oc4cc(O)cc(O)c4C3=O)c[nH]c12` [Example 245, methyl 3-[(4,6-dihydroxy-3-oxo-1-benzofuran-2(3H)-ylidene)methyl]-1H-indole-7-carboxylate], in that order: 1.49 µM and more than 20 µM.
For `CN(C)c1ccc(-c2c(C=C3Oc4cc(O)cc(O)c4C3=O)c3ccccc3n2C)cc1` [Example 198, 2-({2-[4-(dimethylamino)phenyl]-1-methyl-1H-indol-3-yl}methylene)-4,6-dihydroxy-1-benzofuran-3(2H)-one], in that order: 4.87 µM and 4.5 µM.
The like results for `N#Cc1cccc2c1c(C=C1Oc3cc(O)cc(O)c3C1=O)cn2CCN1CCOCC1` [Example 262, 3-[(4,6-dihydroxy-3-oxo-1-benzofuran-2(3H)-ylidene)methyl]-1-(2-morpholin-4-ylethyl)-1H-indole-4-carbonitrile] were, in that order, more than 10 µM and 0.42 µM.
Turning to `COc1cccc2c(C=C3Oc4cc(O)cc(O)c4C3=O)cn(C)c12` [Example 251, 4,6-dihydroxy-2-[(7-methoxy-1-methyl-1H-indol-3-yl)methylene]-1-benzofuran-3(2H)-one], the IC50 in assay [1] (read-out: PI3Kα Avg. IC50) is 2.39 µM; in assay [2], more than 20 µM.
As to `COc1ccc(-c2[nH]c3ccccc3c2C=C2Oc3cc(O)cc(O)c3C2=O)cc1` [Example 208, 4,6-dihydroxy-2-{[2-(4-methoxyphenyl)-1H-indol-3-yl]methylene}-1-benzofuran-3(2H)-one], the figures for the IC50 in assay [1] (read-out: PI3Kα Avg. IC50) and in assay [2] were 0.954 µM and 0.3 µM, respectively.
For `COc1ccc2[nH]cc(C=C3Oc4cc(O)cc(O)c4C3=O)c2c1C` [Example 219, 4,6-dihydroxy-2-[(5-methoxy-4-methyl-1H-indol-3-yl)methylene]-1-benzofuran-3(2H)-one], in that order: 1 µM and more than 20 µM.
As to `Cn1cc(C=C2Oc3cc(O)cc(O)c3C2=O)c2c(OCc3ccccc3)cccc21` [Example 256, 2-{[4-(benzyloxy)-1-methyl-1H-indol-3-yl]methylene}-4,6-dihydroxy-1-benzofuran-3(2H)-one], the results for the IC50 in assay [1] (read-out: PI3Kα Avg. IC50) and in assay [2] were more than 10 µM and 0.28 µM, respectively.
As to `Cn1c(-c2ccccc2)c(C=C2Oc3cc(O)cc(O)c3C2=O)c2ccccc21` [Example 15, 4,6-dihydroxy-2-[(1-methyl-2-phenyl-1H-indol-3-yl)methylene]-1-benzofuran-3(2H)-one], the results for the IC50 in assay [1] (PI3Kα Avg. IC50) and in assay [2] were 2.66 µM and 0.09 µM, respectively.
For `N#Cc1cccc2c1c(C=C1Oc3cc(O)cc(O)c3C1=O)cn2Cc1ccncc1` [Example 263, 3-[(4,6-dihydroxy-3-oxo-1-benzofuran-2(3H)-ylidene)methyl]-1-(pyridin-4-ylmethyl)-1H-indole-4-carbonitrile], the IC50 in assay [1] (read-out: PI3Kα Avg. IC50) came out at 1.68 µM; in assay [2], 0.26 µM.
The like results for `O=C1/C(=C/c2c[nH]c3ccc(OCc4ccccc4)cc23)Oc2cc(O)ccc21` [Example 34, (2Z)-2-{[5-(benzyloxy)-1H-indol-3-yl]methylene}-6-hydroxy-1-benzofuran-3(2H)-one] were, in that order, more than 10 µM and more than 20 µM.
For `Cc1[nH]c2ccc(F)cc2c1C=C1Oc2cc(O)cc(O)c2C1=O` [Example 218, 2-[(5-fluoro-2-methyl-1H-indol-3-yl)methylene]-4,6-dihydroxy-1-benzofuran-3(2H)-one], in that order: 0.796 µM and 1.65 µM.
For `Cn1cc(C=C2Oc3cc(O)cc(O)c3C2=O)c2c(Cl)cccc21` [Example 252, 2-[(4-chloro-1-methyl-1H-indol-3-yl)methylene]-4,6-dihydroxy-1-benzofuran-3(2H)-one], in that order: 0.555 µM and 1.5 µM.
On to `Cc1[nH]c2ccccc2c1/C=C1\Oc2cc(O)cc(O)c2C1=O` [Example 47, (2Z)-4,6-dihydroxy-2-[(2-methyl-1H-indol-3-yl)methylene]-1-benzofuran-3(2H)-one], for which the half-maximal inhibitory concentration (IC50) in assay [1] (PI3Kα Avg. IC50) was determined as 3.2 µM; in assay [2], 0.5 µM.
As for `O=C1C(=Cc2c[nH]c3cc(Cl)ccc23)Oc2cc(O)cc(O)c21` [Example 172, 2-[(6-chloro-1H-indol-3-yl)methylene]-4,6-dihydroxy-1-benzofuran-3(2H)-one], the results for the half-maximal inhibitory concentration (IC50) in assay [1] (read-out: PI3Kα Avg. IC50) and in assay [2] were 0.936 µM and 19 µM, respectively.
The like results for `O=C1C(=Cc2c[nH]c3ccc(OCc4ccccc4)cc23)Oc2cc(O)cc(O)c21` [Example 52, 2-{[5-(benzyloxy)-1H-indol-3-yl]methylene}-4,6-dihydroxy-1-benzofuran-3(2H)-one] were, in that order, 1.89 µM and more than 5 µM.
The like results for `Cc1c(C=C2Oc3cc(O)cc(O)c3C2=O)c2ccccc2n1C` [Example 247, 2-[(1,2-dimethyl-1H-indol-3-yl)methylene]-4,6-dihydroxy-1-benzofuran-3(2H)-one] were, in that order, 3.15 µM and 2.9 µM.
